pIC50: −log10 of the molar value.
target: T1, Human HIF-PHD2 (Homo sapiens, UniProt Q9GZT9); assay: Inhibition of the hydroxylation of a HIF peptide by PHD2 (time resolved fluorescence, 384-well); assay type: biochemical; conditions: FLAG-tagged full length PHD2; 0.2 μM 2-oxoglutarate, 0.5 μM HIF-1α peptide; 45 minutes at room temperature; read-out: Human HIF-PHD2 IC50
T1 construct: FLAG-tagged full length PHD2 expressed in and purified from baculovirus-infected Sf9 cells; FLAG; made in house; host or cells: baculovirus-infected Sf9 cells
T1 sequence (Q9GZT9 whole entry): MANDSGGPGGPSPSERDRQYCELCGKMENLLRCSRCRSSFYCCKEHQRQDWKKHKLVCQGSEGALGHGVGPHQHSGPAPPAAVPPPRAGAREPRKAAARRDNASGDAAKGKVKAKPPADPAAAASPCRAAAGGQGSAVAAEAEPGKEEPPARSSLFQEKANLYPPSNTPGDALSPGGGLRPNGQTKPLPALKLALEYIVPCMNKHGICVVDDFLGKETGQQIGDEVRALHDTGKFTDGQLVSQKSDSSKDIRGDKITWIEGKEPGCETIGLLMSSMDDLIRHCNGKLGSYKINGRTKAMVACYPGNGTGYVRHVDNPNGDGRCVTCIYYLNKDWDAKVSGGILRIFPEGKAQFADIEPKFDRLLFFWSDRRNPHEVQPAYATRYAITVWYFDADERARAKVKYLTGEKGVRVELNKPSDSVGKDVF
Protocol: To each well of a 384-well plate, 1 μL of test compounds in DMSO (final concentration ranging from 0.3 nM to 10 uM) were added into 20 μl of assay buffer (50 mM Tris pH 7.4/0.01% Tween-20/0.1 mg/ml bovine serum albumin/10 μM ferrous sulfate/1 mM sodium ascorbate/20 μg/ml catalase) containing 0.15 μg/ml FLAG-tagged full length PHD2 expressed in and purified from baculovirus-infected Sf9 cells. After a 5 min preincubation at room temperature, the enzymatic reactions were initiated by the addition of 4 μL of substrates {final concentrations of 0.2 μM 2-oxoglutarate and 0.5 μM HIF-1α peptide biotinyl-[…] […] After incubation for 45 minutes at room temperature, the reactions were terminated by the addition of a 25 μL quench/detection mix to a final concentration of 1 mM ortho-phenanthroline, 0.1 mM EDTA, 0.5 nM anti-(His)6 LANCE reagent (Perkin-Elmer Life Sciences), 100 nM AF647-labeled streptavidin (Invitrogen), and 2 μg/ml (His)6-VHL complex {S. Tan Protein Expr. Purif.

pIC50	SMILES
8.21	NC(=O)c1ccc(-c2ccc(C3COc4cccc5c(O)c(C(=O)NCC(=O)O)c(=O)n3c45)cc2)cc1 (stereo not drawn) [Example 141, N-{[3-(4′-Carbamoylbiphenyl-4-yl)-7-hydroxy-5-oxo-2,3-dihydro-5H-[1,4]oxazino[2,3,4-ij]quinolin-6-yl]carbonyl}glycine]
8.44	O=C(O)CNC(=O)c1c(O)c2ccc(-c3cccnc3)c3c2n(c1=O)CCO3 [Example 153, N-[(7-Hydroxy-5-oxo-10-pyridin-3-yl-2,3-dihydro-5H-[1,4]oxazino[2,3,4-ij]quinolin-6-yl)carbonyl]glycine]
7.74	O=C(O)CNC(=O)c1c(O)c2cccc3c2n(c1=O)C(c1ccccc1)CC3 (single isomer, unassigned) [Example 130, 2-(1-Hydroxy-3-oxo-5-phenyl-3,5,6,7-tetrahydropyrido[3,2,1-ij]quinoline-2-carboxamido)acetic acid]
8.30	O=C(O)CNC(=O)c1c(O)c2cc(F)cc3c2n(c1=O)CC(c1ccc(C(F)(F)F)cc1)O3 (stereo not drawn) [Example 66, 2-(9-Fluoro-7-hydroxy-5-oxo-2-(4-(trifluoromethyl)phenyl)-3,5-dihydro-2H-[1,4]oxazino[2,3,4-ij]quinoline-6-carboxamido)acetic acid]
8.14	O=C(O)CNC(=O)c1c(O)c2cccc3c2n(c1=O)CC(c1ccc(C(F)(F)F)cc1)C3 (stereo not drawn) [Example 9, 2-(1-Hydroxy-3-oxo-6-(4-(trifluoromethyl)phenyl)-3,5,6,7-tetrahydropyrido[3,2,1-ij]quinoline-2-carboxamido)acetic acid]
8.59	O=C(O)CNC(=O)c1c(O)c2c(Br)ccc3c2n(c1=O)CC(c1ccc(C(F)(F)F)cc1)O3 (stereo not drawn) [Example 11, 2-(8-Bromo-7-hydroxy-5-oxo-2-(4-(trifluoromethyl)phenyl)-3,5-dihydro-2H-[1,4]oxazino[2,3,4-ij]quinoline-6-carboxamido)acetic acid]
7.49	O=C(O)CNC(=O)c1c(O)c2cccc3c2n(c1=O)C(c1ccc(C(F)(F)F)cc1)CS3 (stereo not drawn) [Example 100, 2-(7-Hydroxy-5-oxo-3-(4-(trifluoromethyl)phenyl)-3,5-dihydro-2H-[1,4]thiazino[2,3,4-ij]quinoline-6-carboxamido)acetic acid]
8.19	O=C(O)CNC(=O)c1c(O)c2cccc3c2n(c1=O)CC(c1ccc(C(F)(F)F)cc1)O3 (stereo not drawn) [Example 10, 2-(7-Hydroxy-5-oxo-2-(4-(trifluoromethyl)phenyl)-3,5-dihydro-2H-[1,4]oxazino[2,3,4-ij]quinoline-6-carboxamido)acetic acid]
8.82	N#Cc1ccc2c3c1c(O)c(C(=O)NCC(=O)O)c(=O)n3CC(c1ccc(C(F)(F)F)cc1)S2 (stereo not drawn) [Example 97, 2-(8-Cyano-7-hydroxy-5-oxo-2-(4-(trifluoromethyl)phenyl)-3,5-dihydro-2H-[1,4]thiazino[2,3,4-ij]quinoline-6-carboxamido)acetic acid]
8.27	N#Cc1ccc2c(O)c(C(=O)NCC(=O)O)c(=O)n3c2c1OCC3c1ccc(C(F)(F)F)cc1 (stereo not drawn) [Example 178, Ammonium 2-(10-cyano-7-hydroxy-5-oxo-3-(4-(trifluoromethyl)phenyl)-3,5-dihydro-2H-[1,4]oxazino[2,3,4-ij]quinoline-6-carboxamido)acetate]
8.35	O=C(O)CNC(=O)c1c(O)c2cccc3c2n(c1=O)CC(c1ccc(C(F)(F)F)cc1)N3 (stereo not drawn) [Example 64, 2-(7-Hydroxy-5-oxo-2-(4-(trifluoromethyl)phenyl)-1,2,3,5-tetrahydropyrido[1,2,3-de]quinoxaline-6-carboxamido)acetic acid]
8.89	N#Cc1ccc2c3c1c(O)c(C(=O)NCC(=O)O)c(=O)n3C(Cc1ccc(C(F)(F)F)cc1)CO2 (stereo not drawn) [Example 29, 2-(8-Cyano-7-hydroxy-5-oxo-3-(4-(trifluoromethyl)benzyl)-3,5-dihydro-2H-[1,4]oxazino[2,3,4-ij]quinoline-6-carboxamido)acetic acid]
8.44	O=C(O)CNC(=O)c1c(O)c2cccc3c2n(c1=O)C(c1ccc(C(F)(F)F)nc1)CN3 (stereo not drawn) [Example 127, 2-(7-Hydroxy-5-oxo-3-(6-(trifluoromethyl)pyridin-3-yl)-1,2,3,5-tetrahydropyrido[1,2,3-de]quinoxaline-6-carboxamido)acetic acid]
8.17	O=C(O)CNC(=O)c1c(O)c2cccc3c2n(c1=O)CC(c1cncs1)C3 (single isomer, unassigned) [Example 50a, 2-(1-Hydroxy-3-oxo-6-(thiazol-5-yl)-3,5,6,7-tetrahydropyrido[3,2,1-ij]quinoline-2-carboxamido)acetic acid]
8.40	COc1ccc2c3c1c(O)c(C(=O)NCC(=O)O)c(=O)n3CC(c1ccc(C(F)(F)F)cc1)O2 (stereo not drawn) [Example 79, 2-(7-hydroxy-8-methoxy-5-oxo-2-(4-(trifluoromethyl)phenyl)-3,5-dihydro-2H-[1,4]oxazino[2,3,4-ij]quinoline-6-carboxamido)acetic acid]
7.82	CS(=O)(=O)c1ccc(C2COc3cccc4c(O)c(C(=O)NCC(=O)O)c(=O)n2c34)cc1 (stereo not drawn) [Example 183, Ammonium 2-(7-hydroxy-3-(4-(methylsulfonyl)phenyl)-5-oxo-3,5-dihydro-2H-[1,4]oxazino[2,3,4-ij]quinoline-6-carboxamido)acetate]
8.54	COc1cc2c3c(c1)c(O)c(C(=O)NCC(=O)O)c(=O)n3CC(c1ccc(C(F)(F)F)cc1)O2 (stereo not drawn) [Example 81, 2-(7-Hydroxy-9-methoxy-5-oxo-2-(4-(trifluoromethyl)phenyl)-3,5-dihydro-2H-[1,4]oxazino[2,3,4-ij]quinoline-6-carboxamido)acetic acid]
9.22	N#Cc1ccc2c(O)c(C(=O)NCC(=O)O)c(=O)n3c2c1OC(c1ccc(C(F)(F)F)cc1)C3 (single isomer, unassigned) [Example 21, 2-(10-Cyano-7-hydroxy-5-oxo-2-(4-(trifluoromethyl)phenyl)-3,5-dihydro-2H-[1,4]oxazino[2,3,4-ij]quinoline-6-carboxamido)acetic acid]
8.08	O=C(O)CNC(=O)c1c(O)c2cccc3c2n(c1=O)CC(c1cncs1)C3 (single isomer, unassigned) [Example 50b, 2-(1-Hydroxy-3-oxo-6-(thiazol-5-yl)-3,5,6,7-tetrahydropyrido[3,2,1-ij]quinoline-2-carboxamido)acetic acid]
7.72	CS(=O)(=O)c1ccc2c3c1c(O)c(C(=O)NCC(=O)O)c(=O)n3CC(c1ccc(C(F)(F)F)cc1)O2 (stereo not drawn) [Example 12, 2-(7-Hydroxy-8-(methylsulfonyl)-5-oxo-2-(4-(trifluoromethyl)phenyl)-3,5-dihydro-2H-[1,4]oxazino[2,3,4-ij]quinoline-6-carboxamido)acetic acid]

same assay, conditions: FLAG-tagged full length PHD2; 0.2 μM 2-oxoglutarate, 0.5 μM HIF-1α peptide; 45 minutes at room temperature; read-out: MS m/z (M + 1)+ and human HIF-PHD2 IC50

pIC50	SMILES
8.27	O=C(O)CNC(=O)c1c(O)c2cccc3c2n(c1=O)C(c1cnc(C(F)(F)F)s1)CO3 (stereo not drawn) [Example 171, 2-(7-hydroxy-5-oxo-3-(2-(trifluoromethyl)thiazol-5-yl)-3,5-dihydro-2H-[1,4]oxazino[2,3,4-ij]quinoline-6-carboxamido)acetic acid]
9.00	O=C(O)CNC(=O)c1c(O)c2cccc3c2n(c1=O)CC(c1ccc(C(F)(F)F)cc1)[S+]3[O-] (stereo not drawn) [Example 61, 2-(7-hydroxy-1-oxido-5-oxo-2-(4-(trifluoromethyl)phenyl)-3,5-dihydro-2H-[1,4]thiazino[2,3,4-ij]quinoline-6-carboxamido)acetic acid]
7.72	O=C(O)CNC(=O)c1c(O)c2cccc3c2n(c1=O)C(c1nccs1)CO3 (stereo not drawn) [Example 168, 2-(7-hydroxy-5-oxo-3-(thiazol-2-yl)-3,5-dihydro-2H-[1,4]oxazino[2,3,4-ij]quinoline-6-carboxamido)acetic acid]
7.85	NC(=O)c1cccc(-c2ccc3c(O)c(C(=O)NCC(=O)O)c(=O)n4c3c2OCC4c2ccc(C(F)(F)F)cc2)c1 (stereo not drawn) [Example 139, N-({10-(3-carbamoylphenyl)-7-hydroxy-5-oxo-3-[4-(trifluoromethyl)phenyl]-2,3-dihydro-5H-[1,4]oxazino[2,3,4-ij]quinolin-6-yl}carbonyl)glycine]
8.30	O=C(O)CNC(=O)c1c(O)c2ccc(Br)c3c2n(c1=O)C(c1cscn1)CO3 (stereo not drawn) [Example 170, 2-(10-bromo-7-hydroxy-5-oxo-3-(thiazol-4-yl)-3,5-dihydro-2H-[1,4]oxazino[2,3,4-ij]quinoline-6-carboxamido)acetic acid]
7.85	COc1ncc(-c2ccc3c(O)c(C(=O)NCC(=O)O)c(=O)n4c3c2OCC4c2ccc(C(F)(F)F)cc2)cn1 (stereo not drawn) [Example 137, N-({7-hydroxy-10-(2-methoxypyrimidin-5-yl)-5-oxo-3-[4-(trifluoromethyl)phenyl]-2,3-dihydro-5H-[1,4]oxazino[2,3,4-ij]quinolin-6-yl}carbonyl)glycine]
7.82	COc1cncc(-c2ccc3c(O)c(C(=O)NCC(=O)O)c(=O)n4c3c2OCC4c2ccc(C(F)(F)F)cc2)c1 (stereo not drawn) [Example 135, N-({7-hydroxy-10-(5-methoxypyridin-3-yl)-5-oxo-3-[4-(trifluoromethyl)phenyl]-2,3-dihydro-5H-[1,4]oxazino[2,3,4-ij]quinolin-6-yl}carbonyl)glycine]

Reference: patent publication US9969752B2, “Inhibitors of HIF prolyl hydroxylase” (MERCK SHARP & DOHME CORP., priority 2014, dated 2018)
